Earlier results in patent publication KR20220033790A, “장 정결용 조성물” (강윤식, priority 2020, dated 2022).

System: blood glucose (혈당)
Settings: scale 0-100, glucose = 100 at 2 h after intake; background statement

Row | Compound | Glycemic index (GI)
1 | OC[C@@H](O)[C@@H](O)[C@H](O)[C@@H](O)CO.OC[C@@H](O)[C@@H](O)[C@H](O)[C@@H](O)CO [소르비톨] | 4
2 | OC[C@@H](O)[C@H](O)[C@@H](O)CO [자일리톨] | 14
